According to patent publication US12274703B2, “Compositions and methods of treatment for neurological disorders comprising a dementia” (Gliapharm SA, priority 2017, dated 2025):
Counter-ions that a name gives are not always drawn. Like-named read-outs stand apart in the source and are kept apart here.

System: primary astrocytes
Experiment: High throughput screening for lactate secretion: acidification of extracellular medium (SNARF5)
Type: cell-based, mouse
Conditions: Mus musculus, Astrocyte, 1.5 h, 10 uM, 90 min
Description: Primary cultures of cerebrocortical astrocytes were obtained from 1-2-day-old OF1 mouse pups (Charles River Laboratories). Briefly, cortices were isolated and minced in small pieces under a dissecting microscope. The cells were incubated for 30 min at 37° C. in a solution containing 20 U/ml of papain enzyme (Worthington Biochemical), L-cysteine 1 mM (Sigma), and 10 kU/ml DNase I (Worthington Biochemical) for an enzymatic dissociation. Papain activity was stopped by the addition of fetal calf serum (FCS) to the solution, and a single-cell suspension was then obtained by mechanical dissociation, which consisted in cells trituration in a DMEM (D7777, Sigma-Aldrich) medium (supplemented with 44 mm NaHCO3, and 10 ml/L antibiotic/antimycotic solution) containing 10% FCS. The cells were seeded at an average density of 6×10^4 cells/cm^2 in poly-D-lysine-coated 96, 12 or 6-well culture plates, depending on their use, and incubated at 37° C. in a humidified atmosphere containing 5% CO2/95% air. Culture medium was renewed twice per week. Cells were stimulated and harvested between DIV14 and DIV17, when confluence and cell growth were optimal.
Secretion of lactate in a high-throughput screening (HTS) fashion was measured indirectly through the acidification of extracellular medium. To this end, primary astrocytes grown in 96-well plates for 17 days were stimulated with the compounds as listed herein.
After washing the cells twice with stimulation medium (DMEM (D5030, Sigma), 3 mM NaHCO3 and 5 mM Glucose) at 37° C., cells were stimulated with the compounds at a final concentration of 10 uM (1% DMSO final) in 50 ul per well of stimulation medium supplemented with 10 uM of the extracellular pH sensor SNARF-5F %-(AND-6)-CAR (Life Technologies Corporation). Each compound was tested in two different plates for duplicates.
After 90 min stimulation, fluorescence was read at exc. (excitation) 480 nm/emm. (emission) 580 nm and at exc 480 nm/emm. 630 nm. The ratio of fluorescence between 630 nm and 580 emission values, which represents extracellular pH, was calculated.
In each plate, 8 wells were used for negative controls (DMSO) and 8 wells were used for positive controls (CCCP 2 uM in DMSO). Z prime values were calculated for each of the plates tested and values <0 were discarded.
The average and SD of compounds' values tested in duplicates were calculated, and compound was noted as HIT when the difference between compound's average and negative control's average was greater than three times the sum of compound's SD and negative controls' SD. Only scores greater than 40% were considered as lead hits for the CDC54K library; for the remaining libraries, all hits were considered. Scores are calculated as the % of activity compared to the positive control in each plate (which is 100%).
Primary screening hits were cherry picked on new plates and confirmed for SNARF5 effect, after having discarded those compounds that are fluorescent (exc. 480 nm/emm. 580 nm or 630 nm) before stimulation. Extracellular medium was next analyzed for extracellular lactate quantification for secondary screening.
Identification of lactate-enhancing drugs with high throughput screening (HTS) experiments on astrocytes primary cultures using extracellular pH dye (SNARF5F 5-(and 6)-carboxylic acid) for 90 min. The procedure is described in Material and Methods (2. Cell culture, 2.1. HTS for lactate secretion and 2.2. Extracellular lactate quantification).
The procedure was performed as follows: • Primary screening: acidification of the extracellular medium • Primary screening confirmation: acidification of the extracellular medium, removal of compounds with fluorescent activity at exc. 480 nm/emm. 580 nm or 630 nm. • Secondary screening: dosage of extracellular lactate

[1] = Appendix I, primary screening, relative to positive control, read-out: Score
[2] = Prestwick hits, activity relative to positive control CCCP 2 uM, read-out: Score
[3] = Prestwick hits, relative to positive control CCCP 2 uM, read-out: HTS Score (lactate)

SMILES	Emax at 10 µM [1]	Emax at 10 µM [2]	Emax at 10 µM [3]
O=S(=O)(c1ccc(F)cc1)N1CCSC1c1ccccc1Cl (stereo not shown) [4052-4279]	15.6%		
CCc1ccc(S(=O)(=O)N2CCSC2c2ccc(OC)c(OC)c2)cc1 (stereo not shown) [4052-4304]	49.4%		
CCCCC(CC)CNC(=N)NC(=N)NCCCCCCNC(=N)NC(=N)NCC(CC)CCCC (stereo not shown) [Alexidine dihydrochloride]		38.9%	38.9%
Cc1nc2c(c(Nc3cccc(C(F)(F)F)c3)n1)CCC2 [D278-0514]	0%		
Clc1ccc2c(c1)CCc1cccnc1C2=C1CCNCC1 [Desloratadine]		6.08%	6.1%
CCCCOc1cc(C(=O)NCCN(CC)CC)c2ccccc2n1 [Dibucaine]		6.12%	6.1%
Cc1oc2ncnc(N3CCCC(C(=O)NCc4ccccn4)C3)c2c1C (stereo not shown) [F228-0350]	95.8%		
Cc1oc2ncnc(N3CCCC(C(=O)NCc4cccnc4)C3)c2c1C (stereo not shown) [F228-0351]	59.2%		
Cc1oc2ncnc(N3CCCC(C(=O)NCc4ccccc4)C3)c2c1C (stereo not shown) [F228-0365]	103%		
CCNC(=O)C1CCCN(c2ncnc3oc(C)c(C)c23)C1 (stereo not shown) [F228-0534]	35.4%		
CNC(=O)C1CCCN(c2ncnc3oc(C)c(C)c23)C1 (stereo not shown) [F228-0541]	15.3%		
Cc1nc(N2CCCC(C(=O)NCc3cccnc3)C2)c2c(C)c(C)oc2n1 (stereo not shown) [F228-0856]	18.6%		
COc1ccc(Cl)cc1S(=O)(=O)NCc1ccncc1 [F0376-0203]	20.3%		
Cc1cccc([N+]2=C3SCCCN3C(O)(c3ccc(Cl)cc3)C2)c1 (stereo not shown) [F0522-0533]	55.7%		
COc1ccccc1[N+]1=C2CCCCN2C(O)(c2ccc(F)cc2)C1 (stereo not shown) [F0524-0338]	73.6%		
OC1(c2ccccc2)C[N+](c2ccc(Cl)cc2)=C2CCCCN21 (stereo not shown) [F0524-0488]	51.2%		
COc1ccc(C2(O)C[N+](c3ccccc3C)=C3CCCCN32)cc1 (stereo not shown) [F0524-0507]	61.2%		
CCOc1ccc(C2(O)C[N+](c3ccccc3C)=C3CCCCN32)cc1 (stereo not shown) [F0524-0511]	70%		
COc1ccccc1[N+]1=C2CCCCCN2C(O)(c2ccc(F)cc2)C1 (stereo not shown) [F0524-0611]	53.4%		
COc1ccc(C2SCCN2S(=O)(=O)c2ccc(C)c(C)c2)cc1OC (stereo not shown) [F1462-0491]	27.2%		
COc1ccccc1Nc1nc(N2CCOCC2)c2ccccc2n1 [F3007-0009]	19.8%		
CCC(=O)O[C@@H](O[P@](=O)(CCCCc1ccccc1)CC(=O)N1C[C@H](C2CCCCC2)C[C@H]1C(=O)O)C(C)C [Fosinopril]		5.71%	5.7%

SMILES	Emax at 10 µM [1]	Emax at 10 µM [2]	Emax at 10 µM [3]
CC(=O)N1CCCc2cc(S(=O)(=O)NCc3ccc(Cl)cc3)ccc21 [G855-0033]	34.7%		
CC(=O)N1CCCc2cc(S(=O)(=O)NCc3ccccc3)ccc21 [G855-0210]	20.6%		
CC(COc1ccccc1)NC(C)C(O)c1ccc(O)cc1 (stereo not shown) [Isoxsuprine hydrochloride]		5.5%	5.5%
COc1ccc(C2(O)C[N+](c3cc(C)ccc3C)=C3SCCCN32)c(F)c1 (stereo not shown) [K404-0183]	89.6%		
COc1ccc([N+]2=C3SCCCN3C(O)(c3cccc([N+](=O)[O-])c3)C2)cc1 (stereo not shown) [K404-0277]	0%		
Cc1cccc([N+]2=C3SCCCN3C(O)(c3ccc(F)cc3)C2)c1 (stereo not shown) [K404-0394]	34.7%		
Cc1cccc([N+]2=C3SCCCN3C(O)(c3ccc(OC(F)F)cc3)C2)c1 (stereo not shown) [K404-0400]	36.3%		
CCc1ccc(C2(O)C[N+](c3ccccc3OC)=C3CCCCN32)cc1 (stereo not shown) [K404-0672]	125%		
CCOc1ccc(C2(O)C[N+](c3ccccc3OC)=C3CCCCN32)cc1 (stereo not shown) [K404-0673]	93.1%		
Cc1cccc([N+]2=C3CCCCN3C(O)(c3ccc(F)cc3)C2)c1C (stereo not shown) [K404-0685]	67.9%		
Cc1ccc(C)c([N+]2=C3CCCCN3C(O)(c3ccc(F)cc3)C2)c1 (stereo not shown) [K404-0697]	59.6%		
COc1ccc(C2(O)C[N+](c3cccc(C)c3)=C3CCCCN32)cc1 (stereo not shown) [K404-0796]	86.1%		
Cc1cccc([N+]2=C3CCCCN3C(O)(c3ccc(Cl)cc3)C2)c1 (stereo not shown) [K404-0800]	97.3%		
Cc1ccc([N+]2=C3CCCCCN3C(O)(c3ccc([N+](=O)[O-])cc3)C2)cc1 (stereo not shown) [K404-0828]	0%		
COc1ccccc1[N+]1=C2CCCCCN2C(O)(c2ccccc2)C1 (stereo not shown) [K404-0838]	103%		
COc1ccccc1[N+]1=C2CCCCCN2C(O)(c2cccc([N+](=O)O)c2)C1 (stereo not shown) [K404-0842]	16.9%		
COc1ccc(C2(O)C[N+](c3cc(C)ccc3C)=C3CCCCCN32)cc1OC (stereo not shown) [K404-0852]	0%		
COc1ccc(OC)c([N+]2=C3CCCCCN3C(O)(c3ccc(C)cc3)C2)c1 (stereo not shown) [K404-0855]	58.5%		
CCOc1ccc(C2(O)C[N+](c3cc(OC)ccc3OC)=C3CCCCCN32)cc1 (stereo not shown) [K404-0860]	57.9%		
COc1ccc(OC)c([N+]2=C3CCCCCN3C(O)(c3ccc([N+](=O)[O-])cc3)C2)c1 (stereo not shown) [K404-0863]	0%		
COc1ccc(C2(O)C[N+](c3ccccc3C)=C3CCCCCN32)cc1OC (stereo not shown) [K404-0906]	19.1%		
Cc1cccc([N+]2=C3CCCCCN3C(O)(c3ccc(F)cc3)C2)c1 (stereo not shown) [K404-0910]	72.6%		

SMILES	Emax at 10 µM [1]	Emax at 10 µM [2]	Emax at 10 µM [3]
Cc1cccc([N+]2=C3CCCCCN3C(O)(c3ccc([N+](=O)[O-])cc3)C2)c1 (stereo not shown) [K404-0914]	0%		
Cc1cccc([N+]2=C3CCCCCN3C(O)(c3cccc([N+](=O)O)c3)C2)c1 (stereo not shown) [K404-0915]	0%		
Cc1cccc(NS(=O)(=O)c2cc(-c3noc(C)n3)cs2)c1 [L287-0220]	35.2%		
O=S(=O)(NC1CCCC1)c1cc(-c2noc(C3CCC3)n2)cs1 [L287-1221]	51.6%		
CC(=O)c1ccc(NS(=O)(=O)c2cc(-c3noc(C4CCCC4)n3)cs2)cc1 [L287-1577]	119%		
Cc1ccc(CNS(=O)(=O)c2cc(-c3noc(C4CCCC4)n3)cs2)cc1 [L287-1641]	77.2%		
CCN(Cc1ccccc1)S(=O)(=O)c1cc(-c2noc(C3CCCC3)n2)cs1 [L287-1758]	0%		
Cn1nccc1-c1csc(S(=O)(=O)Nc2ccc(F)cc2)c1 [L924-0760]	69.1%		
COc1ccc(C)cc1NS(=O)(=O)c1cc(-c2ccnn2C)cs1 [L924-0830]	78.2%		
Cc1cccc(NS(=O)(=O)c2cc(-c3ccnn3C)cs2)c1 [L924-0884]	65.6%		
CCn1nccc1-c1csc(S(=O)(=O)Nc2cc(C)ccc2C)c1 [L924-0988]	52.7%		
CCn1nccc1-c1csc(S(=O)(=O)Nc2ccccc2OC)c1 [L924-1088]	78.5%		
O=C(c1noc2ccc(S(=O)(=O)Nc3cccc(F)c3)cc12)N1CCCC1 [L995-0058]	42.3%		
Cc1ccc(CNS(=O)(=O)c2ccc3onc(C(=O)N4CCCCC4)c3c2)cc1 [L995-0386]	18.8%		
Cc1ccccc1NS(=O)(=O)c1ccc2onc(C(=O)N3CCCCC3)c2c1 [L995-0405]	21.3%		
Clc1ccc(COC(Cn2ccnc2)c2ccc(Cl)cc2Cl)c(Cl)c1 (stereo not shown) [Miconazole]		7.35%	7.3%
CC(=O)N1CCc2sc(S(=O)(=O)Nc3cc(C)cc(C)c3)cc2C1 [P025-0080]	33.1%		
CC(=O)N1CCc2sc(S(=O)(=O)NCc3ccccc3)cc2C1 [P025-0168]	14.5%		
O=C(C1CC1)N1CCc2sc(S(=O)(=O)Nc3cccc(Cl)c3)cc2C1 [P025-0462]	38.7%		
O=C(C1CCOC1)N1CCCn2nc(-c3cccc(Cl)c3)cc2C1 (stereo not shown) [P218-0884]	0%		
